How the values were obtained:
[1] = tested on: amphetamine antibody (pooled antisera); assay: Radioimmunoassay for amphetamine (displacement of 125I-labeled amphetamine analog from antibody); assay type: binding, goats; conditions: for Cross-reactivity: concentration of amphetamine equivalent in the assay to 10 μg/ml. of the test drug: pooled antisera selected for low cross-reactivity; for Relative Reactivity, Radioimmunoassay: cross-reactivity expressed as relative reactivity
[2] = cross-reactivity expressed as relative reactivity; Braitin and Sunshine 1973; cited from earlier work
[3] = cross-reactivity expressed as relative reactivity; Braitin and Sunshine 1973; cited from earlier work; remark: listed apart in the source

Structure (SMILES) | Cross-reactivity: concentration of amphetamine equivalent in the assay to 10 μg/ml. of the test drug ([1]; test drug at 10 μg/ml) [µg/mL] | Relative Reactivity, Radioimmunoassay [1] | Relative Reactivity, FRAT [2] | Relative Reactivity, EMIT [3] | Amphetamine equivalent when tested with 10 μg/ml. of test drug, individual sera ([1]; individual sera (not the selected pool), test drug at 10 μg/ml) [µg/mL]
COc1ccc2c(c1)C13CCCCC1C(C2)N(C)CC3 (single isomer, unassigned) [Dextromethorphan] | 0.003 |  |  |  | 
CNC(C)CC1CCCC1 (centres unmarked) [Cyclopentamine] |  | 0.02 | 0.2 | 0.3 | 
NCCc1ccc(O)c(O)c1 [Dopamine] | 0.015 |  |  |  | 
CN[C@@H](C)[C@H](O)c1ccccc1 [Ephedrine (1-form), Ephedrine] | 0.003 | 0.0003 | 0.15 | 0.2 | 
CC(C)NCC(O)c1ccc(O)c(O)c1 (centres unmarked) [Isoproterenol] | 0 |  |  |  | 
CC(COc1ccccc1)NC(C)C(O)c1ccc(O)cc1 (centres unmarked) [Isoxsuprine] |  | 0 | 0.05 | 0.2 | 
CNC(C)(C)Cc1ccccc1 [Mephentermine] |  |  |  | 0.6 | 
NCC(O)c1ccc(O)c(O)c1 (centres unmarked) [Norepinephrine] | 0.003 |  |  |  | 
CC(CCc1ccccc1)NC(C)C(O)c1ccc(O)cc1 (centres unmarked) [Nylidrin] |  |  | 0.1 |  | 
CC1NCCOC1c1ccccc1 (centres unmarked) [Phenmetrazine] | 0.06 |  |  |  | 
CC(C)(N)Cc1ccccc1 [Phentermine] | 0.7 | 0.07 | 1.0 |  | 2 to 5
CC(N)C(O)c1ccccc1 (centres unmarked) [Phenylpropanolamine] | 0.17 |  |  |  | 
CNC(C)CC1CCCCC1 (centres unmarked) [Propylhexedrine] | 0.3 | 0.03 | 0.5 |  | 
NCCc1ccc(O)cc1 [Tyramine] | 0.17 |  |  |  | 
